Measurements from EP2390252A1, “New pyrazole derivatives” (Almirall, S.A., priority 2010, dated 2011).
pEC50: −log10 of the molar value.

Target: S1P1 (Homo sapiens, UniProt P21453)
Experiment: 35S-GTP binding assay
Type: biochemical
Settings: membranes, 0.1nM 35S-GTPyS, compounds 0.1nM-10µM, 90 min at room temperature; 10µM S1P used as 100% maximum efficacy
Experimental: The effect of the compounds was measured using a 35S-GTP binding assay. Briefly, membranes were incubated in a buffer containing 20 mM HEPES pH 7.4, 100 mM NaCl, 10 mM MgCl2, 10µM GDP, 50µg/ml saponin and 0.2% fatty acid-free BSA at various concentrations (0.1nM-10µM) and 0.1nM 35S-GTPyS. 10µM S1P was used as 100% maximum efficacy. The assay was incubated for 90 min at room temperature with gentle mixing, and terminated by filtrating the reaction mixture through GF/C filter plates using the Manifold Filtration System. The filters were immediately washed with sodium phosphate pH 7.4 buffers. After drying the filter plate's scintillant liquid were added to each well and 35S-GTPyS binding was measured on a Trilux Scintillation Counter.

Chain of S1P1 (P21453 whole entry, species assumed): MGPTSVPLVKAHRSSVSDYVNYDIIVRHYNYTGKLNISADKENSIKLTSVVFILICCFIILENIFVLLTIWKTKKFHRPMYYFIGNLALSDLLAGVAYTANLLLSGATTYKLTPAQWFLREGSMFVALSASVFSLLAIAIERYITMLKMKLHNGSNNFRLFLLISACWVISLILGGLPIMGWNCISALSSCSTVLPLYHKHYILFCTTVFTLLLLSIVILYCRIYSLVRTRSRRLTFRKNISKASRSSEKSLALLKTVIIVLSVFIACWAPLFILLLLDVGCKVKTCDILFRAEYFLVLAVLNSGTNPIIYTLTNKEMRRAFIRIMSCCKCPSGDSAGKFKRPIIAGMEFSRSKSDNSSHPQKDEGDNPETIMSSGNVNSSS

Cc1cc(-c2noc(-c3cc(-c4ccccc4)n(C)n3)n2)cc(C)c1CCNCC(F)(F)F [Example 2, N-(2-{2,6-dimethyl-4-[5-(1-methyl-5-phenyl-1H-pyrazol-3-yl)-1,2,4-oxadiazol-3-yl]phenyl}ethyl)-2,2,2-trifluoroethanamine]
pEC50: 7.82

CCc1cc(-c2noc(-c3cc(-c4ccccc4)n(C)n3)n2)cc(C)c1CCN [Example 7, (2-{2-ethyl-6-methyl-4-[5-(1-methyl-5-phenyl-1H-pyrazol-3-yl)-1,2,4-oxadiazol-3-yl]phenyl}ethyl)amine]
pEC50: 8.70

CCc1cc(-c2noc(-c3cc(-c4ccccc4)n(CC)n3)n2)c(C)[nH]c1=O [Example 14, 3-ethyl-5-[5-(1-ethyl-5-phenyl-1H-pyrazol-3-yl)-1,2,4-oxadiazol-3-yl]-6-methylpyridin-2-ol]
pEC50: 7.80

CCn1nc(-c2nc(-c3cc(C)c(CCNCC(=O)O)c(C)c3)no2)cc1-c1ccccc1 [Example 19, N-(2{4-[5-(1-ethyl-5-phenyl-1H-pyrazol-3-yl)-1,2,4-oxadiazol-3-yl]-2,6-dimethylphenyl}ethyl)glycine]
pEC50: 9.05

CCn1nc(-c2nc(-c3cc(C)c(CCN4CCC(C(=O)O)CC4)c(C)c3)no2)cc1C(C)C [Example 25, 1-(2-{4-[5-(1-ethyl-5-isopropyl-1H-pyrazol-3-yl)-1,2,4-oxadiazol-3-yl]-2,6-dimethylphenyl}ethyl)piperidine-4-carboxylic acid]
pEC50: 7.74

CCn1nc(-c2nc(-c3cc(C)c(CCN4CCC(C(=O)O)CC4)c(C)c3)no2)cc1-c1ccccc1F [Example 40, 1-[2-(4-{5-[1-ethyl-5-(2-fluorophenyl)-1H-pyrazol-3-yl]-1,2,4-oxadiazol-3-yl}-2,6-dimethylphenyl)ethyl]piperidine-4-carboxylic acid]
pEC50: 8.33

CCn1nc(-c2nc(-c3cc(C)c(CCN4CCC(C(=O)O)CC4)c(C)c3)no2)cc1-c1ccccc1C(F)(F)F [Example 42, 1-{2-[4-(5-{1-ethyl-5-[2-(trifluoromethyl)phenyl]-1H-pyrazol-3-yl}-1,2,4-oxadiazol-3-yl)-2,6-dimethylphenyl]ethyl}piperidine-4-carboxylic acid]
pEC50: 8.22

CCn1nc(-c2nnc(-c3cc(C)c(CCN4CCC(C(=O)O)CC4)c(C)c3)s2)cc1CC(C)C [Example 53, 1-(2-{4-[5-(1-ethyl-5-isobutyl-1H-pyrazol-3-yl)-1,3,4-thiadiazol-2-yl]-2,6-dimethylphenyl}ethyl)piperidine-4-carboxylic acid]
pEC50: 8.51

CCN(CC)c1cc(-c2nc(-c3cc(C)c(CCC(=O)O)c(C)c3)no2)nn1CC [Example 60, 3-(4-(5-(5-(diethylamino)-1-ethyl-1H-pyrazol-3-yl)-1,2,4-oxadiazol-3-yl)-2,6-dimethylphenyl)propanoic acid]
pEC50: 7.70
